Experimental data as given in US20240374738A1, “BIFUNCTIONAL COMPOUND CAPABLE OF DEGRADING RECEPTOR TYROSINE KINASE AND APPLICATION THEREOF” (TAIBIDI PHARMACEUTICAL TECHNOLOGY (SHIJIAZHUANG) CO., LTD., priority 2023, published 2024).

Legend:
Type in all cases: cell-based
MKN45 = assay: Growth inhibition of gastric cancer cells MKN45 (CCK-8); details: Homo sapiens, MKN-45, half inhibitory concentration, 72 hours
Procedure: (§1) Inoculate gastric cancer cells (SNU5 or MKN45) into a 96 well plate at a concentration of […], with 100 μl added to each well. Incubate for 30 minutes. Observe the cell status under a microscope. Prepare compounds, weigh a certain amount of the series compounds or reference drug cabozantinib of this patent, first prepare a high concentration mother liquor with pure DMSO, and use gradient dilution method to prepare a concentration of 200 μM, 60 μM, 20 μM, 6 μM, 2 μM, 600 nM, 200 nM, 0 nM drug solution, shake to make it fully mixed. The control group was prepared with cabozantinib using the same solvent and method.
(§2) After preparation, add 1 μl of drug solution to each well of the 96 well plate, and then add 100 μl of culture medium. Repeat each dose three times. Gently shake to allow the cells and medication to come into full contact and incubate in the incubator for 72 hours. 72 hours later, remove and color with CCK-8 reagent kit. Add 20 μl of CCK-8 reagent to each well, gently shake well, and incubate in the incubator for 1 hour. After 1 hour, remove and measure the absorbance of each well using an enzyme-linked immunosorbent assay (ELISA) reader at a wavelength of 450 nm.
(§3) According to the formula: Cell growth inhibition rate=[1−(absorbance of experimental group absorbance of culture medium control group)/(absorbance of blank control group−absorbance of culture medium control group)]×100%. It can be concluded that the compound has the ability to inhibit the growth of gastric cancer cells at the current dose and time.
(§4) Draw a graph based on the gradient of concentration and use GraphPad Prism 9 software (GraphPad Software, La Jolla, CA) to calculate the maximum inhibitory concentration (IC50) at 50%.
(§5) Referring to steps 1 and 2 of this embodiment, the inhibitory effect of the compound of the present invention on the growth of cancer cells and the degradation effect of target proteins were measured, and the following results were obtained (see Table 2 below).
(§6) The growth inhibitory effects of the compound of the present invention on tumor cell lines MKN45 and SNU5 were measured. The activity is expressed as half inhibitory concentration (C50). The results are shown in Table 2 below; When the half inhibitory concentration is less than or equal to 100 nM, the compound activity is labeled as “++++”; When the half inhibitory concentration is greater than 100 nM and less than 500 nM, the compound activity is labeled as […] and less than 1000 nM, the compound activity is labeled as “++”; When the half inhibitory concentration is greater than 1000 nM and less than 3000 nM, the compound activity is marked as “+”; When the half inhibitory concentration is greater than 3000 nM, the compound activity is marked as […]

SNU5 = assay: Growth inhibition of gastric cancer cells SNU5 (CCK-8); details: Homo sapiens, SNU-5, half inhibitory concentration, 72 hours
Procedure: as §1, §2, §3, §4, §5, §6

DDR1 = DDR1 (Homo sapiens, UniProt Q08345); assay: Degradation of DDR1 in tumor cell MKN45 (Western blot); design: The degradation activity of the compounds against DDR1 in the MKN45 cell line; endogenous in cells; host or cells: MKN45; details: MKN-45, maximum degradation percentage, MKN45 cells, 24 hours
Procedure: Western blot experiment: Take gastric cancer cells (MKN45) and inoculate them into a 6-well plate at a concentration of […], adding 2 ml to each well and incubating for 24 hours.
The next day, observe the cells under a microscope to confirm their status. Prepare compounds, weigh a certain amount of the series compounds or reference drug cabozantinib from this patent, first prepare a high concentration mother liquor with pure DMSO, and use gradient dilution method to prepare compound concentrations of 2 mM, 200 μM, 100 μM, 20 μM, 2 μM, 200 nM, and 0 nM. The final concentration of DMSO is 0.5%. Shake to thoroughly mix. Add 10 μl of solution to each well. After incubation for 24 hours, remove the cells and use a pipette to aspirate the suspended cells into a 1.5 ml centrifuge tube. Centrifuge at 5000 rpm for 10 minutes to precipitate the cells. Carefully remove the cell precipitate from the culture medium, add 1 ml of PBS and shake slightly. After repeated cleaning for 3 times, dry the residue. Add 150 μl of RIPA lysate pre mixed with 1% PMSF, blow to allow the lysate to fully contact the cells, and incubate on ice for 10 minutes. Centrifuge at 12000 rpm for 10 minutes, extract the supernatant, use the BCA protein quantification kit to determine and homogenize the sample loading.
Mix BCA-A in a 50:1 ratio Prepare working solution with B solution, dilute the sample by 5 times, then pipette 20 μl onto a 96 well ELISA plate. Add 200 μl of pre mixed BCA working solution and incubate at 37° C. for 20 minutes. Measure the A562 nm absorbance value using an ELISA reader and substitute it into the protein standard curve formula to obtain the sample concentration. After calculating the required volume for loading […] of sample, divide the sample into 1.5 ml centrifuge tubes. Add 10 μl of sample buffer to each tube and mix well. Heat in a 95° C. metal bath for 5 minutes to denature the protein.
Take 4-20% gradient pre adhesive and fix it on the adhesive rack. Add electrophoresis solution to the slot and remove the comb, Marker and protein samples were loaded, and after 30 minutes of electrophoresis at 80V, the voltage was adjusted to 120V for electrophoresis, The marker band stops electrophoresis at the forefront of the gel. Take out the adhesive block and cut it to the appropriate size, The PVDF membrane was cut and activated in methanol, and after activation, the PVDF membrane was equilibrated in a membrane transfer equilibrium solution for 1 minute. Using sponge pads The sequence of PVDF film, adhesive, and sponge pad is placed in the splint and placed in the eBlot equipment for rapid wet rotation. Remove the membrane and seal it in 5% skim milk powder dissolved in 1×TBST for 1 hour. Cut the membrane according to the molecular weight of the target protein and internal reference protein, and place it in primary antibody diluted with 1×TBST. Shake overnight at 4° C.
The next day, transfer the band to 1×TBST for 3 washes, then add a specific dilution of the secondary antibody and shake it for 1.5 hours. Transfer the band again to 1×TBST for 3 washes, prepare ECL color solution, place the membrane in the imaging system, cover the surface with ECL color solution, and take photos of the membrane using the imaging system.
Using the SHST analysis system to analyze the results, measure the grayscale values of each band of the target protein and internal reference protein. Normalize the grayscale values of the target protein/corresponding lane GAPDH grayscale values, and perform quantitative analysis according to the protein amount=experimental group grayscale value/blank control group grayscale value.
The activity of the compound of the present invention in degrading DDR in tumor cell line MKN45 was measured. […]

Chain of DDR1 (Q08345 19-913): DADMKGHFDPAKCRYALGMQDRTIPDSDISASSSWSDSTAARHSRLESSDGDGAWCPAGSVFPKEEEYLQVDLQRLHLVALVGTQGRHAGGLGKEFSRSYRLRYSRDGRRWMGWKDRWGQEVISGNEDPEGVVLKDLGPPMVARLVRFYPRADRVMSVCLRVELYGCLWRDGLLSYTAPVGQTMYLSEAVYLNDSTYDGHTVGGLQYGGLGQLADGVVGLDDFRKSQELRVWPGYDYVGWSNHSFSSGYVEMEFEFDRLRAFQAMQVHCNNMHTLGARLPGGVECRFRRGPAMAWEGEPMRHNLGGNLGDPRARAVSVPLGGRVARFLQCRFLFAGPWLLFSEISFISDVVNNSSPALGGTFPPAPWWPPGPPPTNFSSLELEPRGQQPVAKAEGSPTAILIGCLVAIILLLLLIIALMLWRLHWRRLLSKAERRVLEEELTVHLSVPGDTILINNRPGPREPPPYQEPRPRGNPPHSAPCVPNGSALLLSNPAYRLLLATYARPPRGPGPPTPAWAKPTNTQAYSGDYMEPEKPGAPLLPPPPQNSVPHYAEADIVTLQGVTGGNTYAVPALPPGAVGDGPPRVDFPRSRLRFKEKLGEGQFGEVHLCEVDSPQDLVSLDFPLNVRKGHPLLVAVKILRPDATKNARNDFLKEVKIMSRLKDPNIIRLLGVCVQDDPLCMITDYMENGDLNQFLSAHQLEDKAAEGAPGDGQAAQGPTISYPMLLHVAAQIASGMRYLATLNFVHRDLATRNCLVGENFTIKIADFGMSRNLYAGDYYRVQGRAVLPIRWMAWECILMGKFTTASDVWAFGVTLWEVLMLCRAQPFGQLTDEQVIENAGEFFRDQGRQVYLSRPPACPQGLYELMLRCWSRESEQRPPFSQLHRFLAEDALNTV

IC50 (MKN45) [nM] | IC50 (SNU5) [nM] | Dmax (DDR1) [%] | Compound
500 to 1000 | ≤ 100 | > 85 | COc1cc2c(Oc3ccc(NC(=O)C4(C(=O)Nc5ccc(F)cc5)CC4)cc3)ccnc2cc1N1CCC(CN2C[C@@H]3C[C@H]2CN3CC(=O)Nc2ccc3c(c2)CN(C2CCC(=O)NC2=O)C3=O)CC1 (stereo partly drawn) [TPD12216]
100 to 500 | 500 to 1000 | > 85 | COc1cc2c(Oc3ccc(NC(=O)C4(C(=O)Nc5ccc(F)cc5)CC4)cc3)ccnc2cc1NCC(=O)N1CCC(CN2CCN(c3ccc(NC4CCC(=O)NC4=O)nc3F)CC2)CC1 (stereo not drawn) [TPD5774]
1000 to 3000 | 500 to 1000 | 65 to 75 | COc1cc2c(Oc3ccc(NC(=O)C4(C(=O)Nc5ccc(F)cc5)CC4)cc3)ccnc2cc1N1CCC(NC(=O)C2(C(=O)N[C@H](C(=O)N3C[C@H](O)C[C@H]3C(=O)NCc3ccc(-c4scnc4C)cc3)C(C)(C)C)CC2)CC1 [TPD5424]
1000 to 3000 | 100 to 500 | > 85 | COc1cc2c(Oc3ccc(NC(=O)C4(C(=O)Nc5ccc(F)cc5)CC4)cc3)ccnc2cc1N1CCC(N2CCN(C(=O)CCCCC(=O)N[C@H](C(=O)N3C[C@H](O)C[C@H]3C(=O)NCc3ccc(-c4scnc4C)cc3)C(C)(C)C)CC2)CC1 [TPD5494]
500 to 1000 | 100 to 500 | 65 to 75 | COc1cc2c(Oc3ccc(NC(=O)C4(C(=O)Nc5ccc(F)cc5)CC4)cc3)ccnc2cc1NCC(=O)N1CCC(CN2CCN(c3ccc(N(C)C4CCC(=O)NC4=O)nc3F)CC2)CC1 (stereo not drawn) [TPD5773]
≤ 100 | ≤ 100 | > 85 | COc1cc2c(Oc3ccc(NC(=O)C4(C(=O)Nc5ccc(F)cc5)CC4)cc3)ccnc2cc1N1CCC(CN2C[C@H]3C[C@@H]2CN3CC(=O)Nc2cc3c(cn2)C(=O)N(C2CCC(=O)NC2=O)C3)CC1 (stereo partly drawn) [TPD12101]
500 to 1000 | 1000 to 3000 | 65 to 75 | COc1cc2c(Oc3ccc(NC(=O)C4(C(=O)Nc5ccc(F)cc5)CC4)cc3)ccnc2cc1NCC(=O)N[C@H](C(=O)N1C[C@H](O)C[C@H]1C(=O)NCc1ccc(-c2scnc2C)cc1)C(C)(C)C [TPD5417]

Continued, compound first:

Compound | IC50 (MKN45) [nM] | IC50 (SNU5) [nM] | Dmax (DDR1) [%]
COc1cc2c(Oc3ccc(NC(=O)C4(C(=O)Nc5ccc(F)cc5)CC4)cc3)ccnc2cc1N1CCC(CN2C[C@H]3C[C@@H]2CN3CCNc2cc3c(cn2)C(=O)N(C2CCC(=O)NC2=O)C3)CC1 (stereo partly drawn) [TPD12097] | ≤ 100 | ≤ 100 | 65 to 75
O=C1CCC(N2Cc3c(NC(=O)CCN4CC5CC(C4)N5CC4CCN(c5cc6nccc(Oc7ccc(NC(=O)C8(C(=O)Nc9ccc(F)cc9)CC8)cc7)c6cc5OC(F)(F)F)CC4)cccc3C2=O)C(=O)N1 (stereo not drawn) [TPD12149] | ≤ 100 | ≤ 100 | 75 to 85
COc1cc2c(Oc3ccc(NC(=O)C4(C(=O)Nc5ccc(F)cc5)CC4)cc3)ccnc2cc1NC(=O)CCCN1CCC(CN2CCN(c3ccc(NC4CCC(=O)NC4=O)cc3)CC2)CC1 (stereo not drawn) [TPD5752m] | 100 to 500 | 100 to 500 | > 85
CNC(=O)c1ccc(-c2cnc3ncc(Cc4ccc5ncc(C(=O)N6CCC(CN7CCN(CC(=O)N[C@H](C(=O)N8C[C@H](O)C[C@H]8C(=O)NCc8ccc(-c9scnc9C)cc8)C(C)(C)C)CC7)CC6)cc5c4)n3n2)cc1F [TPD9006] | ≤ 100 | 100 to 500 | 75 to 85
COc1cc2c(Oc3ccc(NC(=O)C4(C(=O)Nc5ccc(F)cc5)CC4)cc3)ccnc2cc1N1CCC(CN2C3CC2CN(CCNc2cc4c(cn2)C(=O)N(C2CCC(=O)NC2=O)C4)C3)CC1 (stereo not drawn) [TPD12081] | ≤ 100 | ≤ 100 | 75 to 85
COc1cc2c(Oc3ccc(NC(=O)C4(C(=O)Nc5ccc(F)cc5)CC4)cc3)ccnc2cc1N1CCC(CN2C3CC2CN(CC(=O)Nc2cc4c(cn2)C(=O)N(C2CCC(=O)NC2=O)C4)C3)CC1 (stereo not drawn) [TPD12083] | ≤ 100 | ≤ 100 | 65 to 75
COc1cc2c(Oc3ccc(NC(=O)C4(C(=O)Nc5ccc(F)cc5)CC4)cc3)ccnc2cc1N1CCC(CN2CCN(CCNc3cc4c(cn3)CN(C3CCC(=O)NC3=O)C4=O)CC2)CC1 (stereo not drawn) [TPD12009] | ≤ 100 | ≤ 100 | 65 to 75
O=C1CCC(N2Cc3cc(NC(=O)CN4C5CC4CN(CC4CCN(c6cc7nccc(Oc8ccc(NC(=O)C9(C(=O)Nc%10ccc(F)cc%10)CC9)cc8)c7cc6F)CC4)C5)ncc3C2=O)C(=O)N1 (stereo not drawn) [TPD12088] | 100 to 500 | ≤ 100 | 65 to 75
Cc1nc(CCOC2CCN(CCC(=O)Nc3cccc4c3CN(C3CCC(=O)NC3=O)C4=O)CC2)cc(Nc2ncc(C(=O)Nc3c(C)cccc3Cl)s2)n1 (stereo not drawn) [TPD10050] | 500 to 1000 | 100 to 500 | 75 to 85
Cc1nc(CCN2CCC(CN3CCN(c4ccc5c(c4)C(=O)N(C4CCC(=O)NC4=O)C5=O)CC3)CC2)cc(Nc2ncc(C(=O)Nc3c(C)cccc3Cl)s2)n1 (stereo not drawn) [TPD10051] | ≤ 100 | 500 to 1000 | > 85
COc1cc2c(Oc3ccc(NC(=O)C4(C(=O)Nc5ccc(F)cc5)CC4)cc3)ccnc2c(F)c1N1CCC(CN2C3CC2CN(CCC(=O)Nc2cc4c(cn2)C(=O)N(C2CCC(=O)NC2=O)C4)C3)CC1 (stereo not drawn) [TPD12139] | ≤ 100 | ≤ 100 | 75 to 85
COc1cc2c(Oc3ccc(NC(=O)C4(C(=O)Nc5ccc(F)cc5)CC4)cc3)ccnc2cc1NC(=O)c1cnc(N2CCC(CN3CCN(c4ccc5c(c4)C(=O)N(C4CCC(=O)NC4=O)C5=O)CC3)CC2)nn1 (stereo not drawn) [TPD5714] | 100 to 500 | ≤ 100 | 65 to 75
COc1cc2c(Oc3ccc(NC(=O)C4(C(=O)Nc5ccc(F)cc5)CC4)cc3)ccnc2cc1N1CCC(CN2C3CC2CN(CCC#Cc2ccc4c(c2)CN(C2CCC(=O)NC2=O)C4=O)C3)CC1 (stereo not drawn) [TPD12236] | ≤ 100 | ≤ 100 | 75 to 85
COc1cc2c(Oc3ccc(NC(=O)C4(C(=O)Nc5ccc(F)cc5)CC4)cc3)ccnc2cc1COCCN1CCC(OCCCNc2ccc3c(c2)C(=O)N(C2CCC(=O)NC2=O)C3=O)CC1 (stereo not drawn) [TPD5315] | 100 to 500 | 100 to 500 | > 85
